Assay results published in patent US12145913B2, “Inhibition of Olig2 activity” (Curtana Pharmaceuticals, Inc., priority 2016, dated 2024).
Where two headings read alike, the source gives them in different places.

Columns and labels:
[1] = test system: GBM8 human glioblastoma cells; assay: GBM8 viability assay (Cell Titer Glo); format: cell-based; conditions: 72 h, luminescence
Summary of the method: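 Patient-derived GBM4 and GBM8 neurosphere cells, 4000 per well in EGF/bFGF/heparin-supplemented NeuroCult medium, were exposed to compound (added in 1% DMSO solution) for 3 days at 37° C. Growth was read by CellTiter-Glo luminescence versus DMSO wells, and IC50s came from 4-parameter fits of serial dilutions.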

[2] = test system: GBM4 human glioblastoma cells; assay: GBM4 viability assay (Cell Titer Glo); format: cell-based
Description: Cell culture medium was prepared from a NSA proliferation kit (Neurocult) and NeuroCult supplements (Stemcell Tech Cat. #05751) and treated with 20 μL of 10 μg/mL rh EGF, 10 μL of 10 μg/mL rh bFGF and 10 μL of 0.2% Heparin. In this medium, human glioblastoma cells were cultured in ultra-low attachment tissue culture flasks until 1×10^6 cells ml was achieved (GBM4 and GBM8 are distinct neurosphere cell cultures derived from these human patient tissues). GBM4 and GBM8 cells were dissociated and 10 mL of media containing 4000 human glioblastoma cells per 90 μL were transferred to an ultra-low binding 96-well plate and incubated at 37° C. overnight. On the following day, 10 μL of a 1% DMSO solution of test compound in assay medium was added to wells containing the cell suspension and the mixture incubated at 37° C. for 3 days. At this time, the plate was removed from the incubator and allowed to reach room temperature. After about 30 minutes, 50 μL of Cell Titer Glo solution was added to each well and the plate shaken for 1 minute at low speed. After 10 minutes luminescence was recorded using a Tecan Safire2 reader.
Reduction in luminescence compared to DMSO only control wells was used to determine the percentage inhibition of cell growth. IC50s were calculated using the % inhibition of luminescence for serial dilutions of compounds fitted to a 4-parameter fit within the Prism (San Diego) curve fitting program. Tables 1 (compounds 3-188) and 2 (compounds 190-212) show the GBM4 IC50 and GBM8 IC50 for compounds described herein.

[3] = Table 3, GBM4 cells, read-out: GBM4 IC50 (Cytotoxicity)
[4] = 72 h, Table 1, 3 days incubation, luminescence, read-out: GBM4 IC50

Structure (SMILES) | IC50 ([1]; Table 1, 3 days incubation) [nM] | further results
CC(=O)NCCNc1cc(C)nc(NC(=O)Nc2ccc3ccccc3c2)n1 [Compound 35, N-(2-((6-methyl-2-(3-(naphthalen-2-yl)ureido)pyrimidin-4-yl)amino)ethyl)acetamide] | < 500 | IC50 [2, 3]: 140 nM
CCNc1cc(C)nc(NC(=O)Nc2ccc3ccccc3c2)n1 [Compound 19] | < 500 | IC50 [2, 3]: 60 nM
Cc1cc(NCCCN(C)C)nc(NC(=O)Nc2ccc3ccccc3c2)n1 [Compound 3, 1-(4-((3-(dimethylamino)propyl)amino)-6-methylpyrimidin-2-yl)-3-(naphthalen-2-yl)urea] | < 500 | IC50 [2, 4]: < 500 nM
Cc1cc(NCCCN)nc(NC(=O)Nc2ccc3ccccc3c2)n1 [Compound 4, 1-(4-((3-aminopropyl)amino)-6-methylpyrimidin-2-yl)-3-(naphthalen-2-yl)urea] | < 500 | IC50 [2, 4]: < 500 nM
Cc1cc(NCCc2ncc[nH]2)nc(NC(=O)Nc2ccc3ccccc3c2)n1 [Compound 22, 1-(4-((2-(1H-imidazol-2-yl)ethyl)amino)-6-methylpyrimidin-2-yl)-3-(naphthalen-2-yl)urea] | < 500 | 
Cc1cc(NCCO)nc(NC(=O)Nc2ccc3cnccc3c2)n1 [Compound 60, 1-(4-((2-hydroxyethyl)amino)-6-methylpyrimidin-2-yl)-3-(isoquinolin-6-yl)urea] | < 500 | 
CC(=O)NCCCNc1cc(C)nc(NC(=O)Nc2cc3ccccc3cn2)n1 [Compound 92, N-(3-((2-(3-(isoquinolin-3-yl)ureido)-6-methylpyrimidin-4-yl)amino)propyl)acetamide] | 500 to 5000 | 
CNCCCNc1cc(C)nc(NC(=O)Nc2ccc3cnccc3c2)n1 [Compound 64, 1-(isoquinolin-6-yl)-3-(4-methyl-6-((3-(methylamino)propyl)amino)pyrimidin-2-yl)urea] | < 500 | 
O=C(Nc1ccc(OC(F)(F)F)cc1)Nc1nc(NO)cc(C2CC2)n1 [Compound 212, 1-(4-cyclopropyl-6-(hydroxyamino)pyrimidin-2-yl)-3-(4-(trifluoromethoxy)phenyl)urea] |  | IC50 ([1]; Table 2, 3 days incubation): 500 to 5000 nM
Cc1cc(NCCN)nc(NC(=O)Nc2cc3ccccc3cn2)n1 [Compound 90, 1-(4-((2-aminoethyl)amino)-6-methylpyrimidin-2-yl)-3-(isoquinolin-3-yl)urea] | 500 to 5000 | 
Cc1cc(NCCNC(=O)C(F)(F)F)nc(NC(=O)Nc2ccc3ccccc3c2)n1 [Compound 38, 2,2,2-trifluoro-N-(2-((6-methyl-2-(3-(naphthalen-2-yl)ureido)pyrimidin-4-yl)amino)ethyl)acetamide] | 500 to 5000 | 
CNCCNc1cc(C)nc(NC(=O)Nc2ccc3ccccc3c2)n1 [Compound 30, 1-(4-methyl-6-((2-(methylamino)ethyl)amino)pyrimidin-2-yl)-3-(naphthalen-2-yl)urea] | < 500 | 
Cc1cc(NCC(F)(F)CO)nc(NC(=O)Nc2ccc3ccccc3c2)n1 [Compound 27, 1-(4-((2,2-difluoro-3-hydroxypropyl)amino)-6-methylpyrimidin-2-yl)-3-(naphthalen-2-yl)urea] | < 500 | 
Cc1cc(NCCNS(C)(=O)=O)nc(NC(=O)Nc2ccc3ccccc3c2)n1 [Compound 36, N-(2-((6-methyl-2-(3-(naphthalen-2-yl)ureido)pyrimidin-4-yl)amino)ethyl)methanesulfonamide] | < 500 | IC50 [2, 3]: 40 nM
Cc1cc(NCCNS(C)(=O)=O)nc(NC(=O)Nc2ccc3cnccc3c2)n1 [Compound 75, N-(2-((2-(3-(isoquinolin-6-yl)ureido)-6-methylpyrimidin-4-yl)amino)ethyl)methanesulfonamide] | < 500 | 
Cc1cc(NCC(C)O)nc(NC(=O)Nc2ccc3ccccc3c2)n1 (centres unmarked) [Compound 14] | < 500 | 
CN(C)CCCNc1cc(C2CC2)nc(NC(=O)Nc2ccc(Cl)c(Cl)c2)n1 [Compound 204, 1-(4-cyclopropyl-6-((3-(dimethylamino)propyl)amino)-pyrimidin-2-yl)-3-(3,4-dichlorophenyl)urea] |  | IC50 ([1]; Table 2, 3 days incubation): 500 to 5000 nM
CN(C)CCCNc1cc(C2CC2)nc(NC(=O)Nc2ccc(OC(F)(F)F)cc2)n1 [Compound 209, 1-(4-cyclopropyl-6-((3-(dimethylamino)propyl)amino)-pyrimidin-2-yl)-3-(4-(trifluoromethoxy)phenyl)urea] |  | IC50 ([1]; Table 2, 3 days incubation): 500 to 5000 nM
CNCCCNc1cc(C(C)C)nc(NC(=O)Nc2ccc(OC(F)(F)F)cc2)n1 [Compound 198, 1-(4-isopropyl-6-((3-(methylamino)propyl)amino)pyrimidin-2-yl)-3-(4-(trifluoromethoxy)phenyl)urea] |  | IC50 ([1]; Table 2, 3 days incubation): 500 to 5000 nM
Cc1cc(NCC2CCCNC2)nc(NC(=O)Nc2ccc3ccccc3c2)n1 (centres unmarked) [Compound 32, 1-(4-methyl-6-((piperidin-3-ylmethyl)amino)pyrimidin-2-yl)-3-(naphthalen-2-yl)urea] | < 500 | 
Cc1cc(NCC(O)CO)nc(NC(=O)Nc2ccc3ccccc3c2)n1 (centres unmarked) [Compound 18] | < 500 | 

Further lines, with some results ahead:

IC50 ([1]; Table 1, 3 days incubation) [nM] | Structure (SMILES) | further results
500 to 5000 | CN(C)CCCNc1ccnc(NC(=O)Nc2ccc(OC(F)(F)F)cc2)n1 [Compound 163, 1-(4-((3-(dimethylamino)propyl)amino)pyrimidin-2-yl)-3-(4-(trifluoromethoxy)phenyl)urea] | 
500 to 5000 | Cc1cc(NCCCN)nc(NC(=O)Nc2ccc3ccccc3n2)n1 [Compound 99, 1-(4-((3-aminopropyl)amino)-6-methylpyrimidin-2-yl)-3-(quinolin-2-yl)urea] | 
500 to 5000 | CN(C)CCCNc1ccnc(NC(=O)Nc2ccc(Cl)c(Cl)c2)n1 [Compound 157, 1-(3,4-dichlorophenyl)-3-(4-((3-(dimethylamino)propyl)amino)pyrimidin-2-yl)urea] | 
500 to 5000 | CNCCCNc1cc(C(C)C)nc(NC(=O)Nc2ccc(Cl)c(Cl)c2)n1 [Compound 184, 1-(3,4-dichlorophenyl)-3-(4-isopropyl-6-((3-(methyl-amino)propyl)amino)pyrimidin-2-yl)urea] | 
< 500 | Cc1cc(NCCCN(C)C)nc(NC(=O)Nc2ccc3ccncc3c2)n1 [Compound 114, 1-(4-((3-(dimethylamino)propyl)amino)-6-methylpyrimidin-2-yl)-3-(isoquinolin-7-yl)urea] | 
500 to 5000 | CONc1cc(C)nc(NC(=O)Nc2ccc(OC(F)(F)F)cc2)n1 [Compound 146, 1-(4-(methoxyamino)-6-methylpyrimidin-2-yl)-3-(4-(trifluoromethoxy)phenyl)urea] | 
